Measured values reported in US12343326B2, “Psychoactive medicines and their use for treating psychiatric and neurological conditions and disorders” (Transcend Therapeutics, Inc., priority 2021, dated 2025).

Legend:
Experiment in all cases: β-arrestin based GPCR screen (PathHunter / GPCRmax), antagonist mode
168 GPCRs [1] = target: 168 GPCRs (Homo sapiens, UniProt P35367)
168 GPCRs [2] = target: 168 GPCRs (Homo sapiens, UniProt P35372)
168 GPCRs [3] = target: 168 GPCRs (Homo sapiens, UniProt P14416); details: DRD2L
168 GPCRs [4] = target: 168 GPCRs (Homo sapiens, UniProt P34981); details: TRHR
168 GPCRs [5] = target: 168 GPCRs (Homo sapiens, UniProt P37288); details: AVPR1A, Antagonist
168 GPCRs [6] = target: 168 GPCRs (Homo sapiens, UniProt Q8NFJ6)
168 GPCRs [7] = target: 168 GPCRs (Homo sapiens, UniProt P32239); details: CCKBR, Antagonist
168 GPCRs (Homo sapiens, UniProt P32239), sequence (P32239 whole entry): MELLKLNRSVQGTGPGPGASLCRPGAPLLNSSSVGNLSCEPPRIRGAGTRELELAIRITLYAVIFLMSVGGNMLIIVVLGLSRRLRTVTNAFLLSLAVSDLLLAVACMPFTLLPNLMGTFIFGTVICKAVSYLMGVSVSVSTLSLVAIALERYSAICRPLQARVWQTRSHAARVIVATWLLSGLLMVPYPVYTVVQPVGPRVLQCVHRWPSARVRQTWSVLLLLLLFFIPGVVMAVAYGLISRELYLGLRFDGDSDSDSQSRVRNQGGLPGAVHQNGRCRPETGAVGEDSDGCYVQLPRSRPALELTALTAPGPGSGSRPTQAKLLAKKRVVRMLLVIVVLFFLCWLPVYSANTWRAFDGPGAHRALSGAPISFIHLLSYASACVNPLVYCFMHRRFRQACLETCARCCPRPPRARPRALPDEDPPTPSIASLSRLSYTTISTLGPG

168 GPCRs [8] = target: 168 GPCRs (Homo sapiens, UniProt Q92847); details: GHSR
168 GPCRs (Homo sapiens, UniProt Q92847), sequence (Q92847 whole entry): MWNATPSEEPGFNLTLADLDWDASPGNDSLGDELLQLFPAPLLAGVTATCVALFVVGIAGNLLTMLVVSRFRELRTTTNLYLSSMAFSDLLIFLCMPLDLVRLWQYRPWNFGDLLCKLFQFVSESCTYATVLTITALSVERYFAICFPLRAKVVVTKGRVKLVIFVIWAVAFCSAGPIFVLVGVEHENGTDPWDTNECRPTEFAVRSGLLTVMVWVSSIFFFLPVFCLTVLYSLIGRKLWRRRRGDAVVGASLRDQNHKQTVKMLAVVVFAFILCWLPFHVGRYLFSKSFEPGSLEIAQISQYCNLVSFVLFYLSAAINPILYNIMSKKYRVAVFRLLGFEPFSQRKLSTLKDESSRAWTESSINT

168 GPCRs [9] = target: 168 GPCRs (Homo sapiens, UniProt P11229); details: CHRM1, Antagonist
168 GPCRs (Homo sapiens, UniProt P11229), sequence (P11229 whole entry): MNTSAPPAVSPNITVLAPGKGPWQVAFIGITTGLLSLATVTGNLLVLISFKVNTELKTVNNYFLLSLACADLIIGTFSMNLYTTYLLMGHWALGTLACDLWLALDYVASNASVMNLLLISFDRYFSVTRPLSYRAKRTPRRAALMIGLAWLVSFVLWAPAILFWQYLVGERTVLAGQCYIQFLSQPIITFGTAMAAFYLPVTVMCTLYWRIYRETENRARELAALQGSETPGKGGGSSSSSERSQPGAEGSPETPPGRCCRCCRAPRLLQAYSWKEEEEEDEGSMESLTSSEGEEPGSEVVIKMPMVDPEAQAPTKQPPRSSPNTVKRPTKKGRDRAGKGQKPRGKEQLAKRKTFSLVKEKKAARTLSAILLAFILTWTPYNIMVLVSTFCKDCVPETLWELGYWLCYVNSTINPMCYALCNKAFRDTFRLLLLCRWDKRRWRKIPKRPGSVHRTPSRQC

168 GPCRs [10] = target: 168 GPCRs (Homo sapiens, UniProt Q9Y5N1)
168 GPCRs [11] = target: 168 GPCRs (Homo sapiens, UniProt P47872); details: SCTR
168 GPCRs (Homo sapiens, UniProt P47872), sequence (P47872 23-440): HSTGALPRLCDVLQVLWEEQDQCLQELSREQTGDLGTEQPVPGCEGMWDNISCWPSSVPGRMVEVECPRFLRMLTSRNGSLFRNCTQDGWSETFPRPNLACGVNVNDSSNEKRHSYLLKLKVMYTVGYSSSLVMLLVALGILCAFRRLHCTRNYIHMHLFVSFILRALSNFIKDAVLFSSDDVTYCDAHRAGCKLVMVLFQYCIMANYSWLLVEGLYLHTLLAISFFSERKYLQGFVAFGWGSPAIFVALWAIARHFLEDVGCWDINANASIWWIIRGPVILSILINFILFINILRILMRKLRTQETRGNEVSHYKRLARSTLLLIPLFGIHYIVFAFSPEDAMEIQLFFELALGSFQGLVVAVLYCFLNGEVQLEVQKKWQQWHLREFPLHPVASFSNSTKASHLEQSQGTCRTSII

168 GPCRs [12] = target: 168 GPCRs (Homo sapiens, UniProt Q03431)
168 GPCRs (Homo sapiens, UniProt Q03431), sequence (Q03431 27-593): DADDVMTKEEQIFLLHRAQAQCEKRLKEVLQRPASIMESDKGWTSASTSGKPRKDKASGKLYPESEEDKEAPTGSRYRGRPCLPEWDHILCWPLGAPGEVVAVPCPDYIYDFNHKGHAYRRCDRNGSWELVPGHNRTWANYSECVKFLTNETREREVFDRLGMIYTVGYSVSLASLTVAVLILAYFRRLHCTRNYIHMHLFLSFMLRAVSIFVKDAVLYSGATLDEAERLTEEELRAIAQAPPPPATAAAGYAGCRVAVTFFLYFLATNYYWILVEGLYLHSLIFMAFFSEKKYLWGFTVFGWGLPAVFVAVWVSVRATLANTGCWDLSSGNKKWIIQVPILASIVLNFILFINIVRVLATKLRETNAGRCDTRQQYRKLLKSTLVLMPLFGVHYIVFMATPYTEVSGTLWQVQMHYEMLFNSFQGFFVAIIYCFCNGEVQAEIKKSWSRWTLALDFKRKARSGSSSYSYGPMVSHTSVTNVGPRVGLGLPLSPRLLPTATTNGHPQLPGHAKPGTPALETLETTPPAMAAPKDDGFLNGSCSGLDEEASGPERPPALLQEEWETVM

168 GPCRs [13] = target: T1, 168 GPCRs (Homo sapiens, UniProt P24530); details: EDNRB
T1 sequence (P24530 27-442): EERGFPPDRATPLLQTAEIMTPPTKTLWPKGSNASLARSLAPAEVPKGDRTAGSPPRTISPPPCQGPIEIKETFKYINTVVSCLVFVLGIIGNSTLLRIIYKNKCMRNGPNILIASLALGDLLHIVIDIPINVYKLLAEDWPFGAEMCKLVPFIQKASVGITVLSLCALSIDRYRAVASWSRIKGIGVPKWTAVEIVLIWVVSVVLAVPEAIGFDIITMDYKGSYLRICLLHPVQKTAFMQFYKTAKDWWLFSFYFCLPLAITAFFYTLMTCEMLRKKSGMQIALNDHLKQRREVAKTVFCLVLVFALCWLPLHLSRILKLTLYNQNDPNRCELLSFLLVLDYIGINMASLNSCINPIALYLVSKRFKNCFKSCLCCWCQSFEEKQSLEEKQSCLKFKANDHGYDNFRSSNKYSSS

168 GPCRs [14] = target: 168 GPCRs (Homo sapiens, UniProt P43119); details: PTGIR
168 GPCRs (Homo sapiens, UniProt P43119), sequence (P43119 whole entry): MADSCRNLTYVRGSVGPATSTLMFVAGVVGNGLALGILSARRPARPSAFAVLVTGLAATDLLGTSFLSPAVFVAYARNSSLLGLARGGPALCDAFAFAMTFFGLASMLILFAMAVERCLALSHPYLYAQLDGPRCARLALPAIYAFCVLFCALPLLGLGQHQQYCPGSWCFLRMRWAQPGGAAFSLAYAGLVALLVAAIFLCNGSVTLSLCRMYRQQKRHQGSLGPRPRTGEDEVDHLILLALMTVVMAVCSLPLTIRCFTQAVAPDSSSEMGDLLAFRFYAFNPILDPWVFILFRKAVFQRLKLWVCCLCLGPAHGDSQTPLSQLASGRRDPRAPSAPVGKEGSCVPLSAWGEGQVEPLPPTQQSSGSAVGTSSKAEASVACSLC

168 GPCRs [15] = target: 168 GPCRs (Homo sapiens, UniProt P32249)
168 GPCRs [16] = target: 168 GPCRs (Homo sapiens, UniProt P25929); details: NPY1R
168 GPCRs (Homo sapiens, UniProt P25929), sequence (P25929 whole entry): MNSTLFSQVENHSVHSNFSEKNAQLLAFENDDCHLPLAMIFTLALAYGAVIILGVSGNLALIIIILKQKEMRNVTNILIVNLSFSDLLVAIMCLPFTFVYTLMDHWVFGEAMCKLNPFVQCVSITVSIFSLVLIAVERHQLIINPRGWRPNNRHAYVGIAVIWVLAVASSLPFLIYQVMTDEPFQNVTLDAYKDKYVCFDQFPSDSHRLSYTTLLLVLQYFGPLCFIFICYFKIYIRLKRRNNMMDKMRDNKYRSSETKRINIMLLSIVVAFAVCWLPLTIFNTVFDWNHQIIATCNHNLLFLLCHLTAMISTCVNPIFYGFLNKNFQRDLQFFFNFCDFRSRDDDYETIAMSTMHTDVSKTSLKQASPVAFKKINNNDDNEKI

168 GPCRs [17] = target: 168 GPCRs (Homo sapiens, UniProt P29371)
168 GPCRs (Homo sapiens, UniProt P29371), sequence (P29371 whole entry): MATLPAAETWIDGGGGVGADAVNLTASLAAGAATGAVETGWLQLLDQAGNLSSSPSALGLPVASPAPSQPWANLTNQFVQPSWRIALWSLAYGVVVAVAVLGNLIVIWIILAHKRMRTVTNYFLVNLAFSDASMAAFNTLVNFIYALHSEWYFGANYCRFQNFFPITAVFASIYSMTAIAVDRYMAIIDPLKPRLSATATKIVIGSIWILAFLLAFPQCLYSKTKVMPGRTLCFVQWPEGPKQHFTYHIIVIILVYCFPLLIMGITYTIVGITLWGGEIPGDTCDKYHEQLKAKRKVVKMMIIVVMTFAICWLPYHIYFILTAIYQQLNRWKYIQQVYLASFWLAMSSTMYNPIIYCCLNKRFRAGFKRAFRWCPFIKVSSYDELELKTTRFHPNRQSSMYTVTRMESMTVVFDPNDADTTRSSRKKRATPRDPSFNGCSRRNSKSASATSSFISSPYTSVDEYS

168 GPCRs [18] = target: 168 GPCRs (Homo sapiens, UniProt P25106)
168 GPCRs (Homo sapiens, UniProt P25106), sequence (P25106 whole entry): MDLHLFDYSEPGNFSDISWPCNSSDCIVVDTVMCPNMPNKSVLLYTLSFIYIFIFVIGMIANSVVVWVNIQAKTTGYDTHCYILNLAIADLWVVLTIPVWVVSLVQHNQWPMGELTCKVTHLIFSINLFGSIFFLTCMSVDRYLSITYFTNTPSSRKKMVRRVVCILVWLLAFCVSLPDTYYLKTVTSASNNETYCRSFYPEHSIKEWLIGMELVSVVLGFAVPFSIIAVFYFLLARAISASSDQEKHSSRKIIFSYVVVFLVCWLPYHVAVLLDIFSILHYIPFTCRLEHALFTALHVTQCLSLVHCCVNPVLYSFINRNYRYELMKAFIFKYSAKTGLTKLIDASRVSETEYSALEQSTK

168 GPCRs (Homo sapiens, UniProt P35372), sequence (P35372 whole entry): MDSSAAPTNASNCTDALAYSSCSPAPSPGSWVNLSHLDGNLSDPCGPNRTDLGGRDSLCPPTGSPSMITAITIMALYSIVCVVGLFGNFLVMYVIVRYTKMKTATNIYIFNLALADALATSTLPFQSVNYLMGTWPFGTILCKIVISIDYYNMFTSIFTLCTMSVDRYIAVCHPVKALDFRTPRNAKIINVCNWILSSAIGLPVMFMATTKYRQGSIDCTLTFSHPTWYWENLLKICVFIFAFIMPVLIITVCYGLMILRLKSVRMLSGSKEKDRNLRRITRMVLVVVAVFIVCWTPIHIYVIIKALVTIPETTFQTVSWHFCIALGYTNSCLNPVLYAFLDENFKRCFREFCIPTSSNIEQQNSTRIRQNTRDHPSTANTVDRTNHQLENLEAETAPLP
168 GPCRs (Homo sapiens, UniProt P35367), sequence (P35367 whole entry): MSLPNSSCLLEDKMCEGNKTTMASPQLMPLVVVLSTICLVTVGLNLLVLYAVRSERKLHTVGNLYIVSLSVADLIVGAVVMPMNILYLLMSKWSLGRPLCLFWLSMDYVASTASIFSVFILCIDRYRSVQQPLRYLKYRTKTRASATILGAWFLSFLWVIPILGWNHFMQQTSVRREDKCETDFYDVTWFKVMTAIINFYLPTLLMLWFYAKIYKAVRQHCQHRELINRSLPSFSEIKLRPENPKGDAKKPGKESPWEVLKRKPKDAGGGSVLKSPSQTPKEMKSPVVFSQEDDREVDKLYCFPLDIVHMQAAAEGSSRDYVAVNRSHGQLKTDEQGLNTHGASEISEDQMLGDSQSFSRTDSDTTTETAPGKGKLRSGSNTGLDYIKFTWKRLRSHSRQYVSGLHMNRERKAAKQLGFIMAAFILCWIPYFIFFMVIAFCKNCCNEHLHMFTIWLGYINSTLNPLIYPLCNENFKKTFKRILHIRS

Compound: CNC(C)C(=O)c1ccc2c(c1)OCO2 (stereo not drawn) [methylone, 3,4-methylenedioxy-N-methylcathinone]
- activity at 10 µM (168 GPCRs [1]; HRH1, Antagonist mode, 10 uM): 2.2%
- activity at 1 µM (168 GPCRs [1]; HRH1, Antagonist, 1 uM): -18%
- activity at 10 µM (168 GPCRs [2]; OPRM1, OPRM1, Antagonist mode, 10 uM): -18%
- activity at 1 µM (168 GPCRs [2]; OPRM1, OPRM1, Antagonist, 1 uM): -8%
- activity at 10 µM (168 GPCRs [3]; Antagonist mode, 10 uM): 0.1%
- activity at 1 µM (168 GPCRs [3]; Antagonist, 1 uM): 1.1%
- activity at 10 µM (168 GPCRs [4]; Antagonist mode, 10 uM): 2.8%
- activity at 1 µM (168 GPCRs [4]; Antagonist, 1 uM): -7.2%
- activity at 1 µM (168 GPCRs [5]; 1 uM): -3%
- activity at 10 µM (168 GPCRs [5]; 10 uM): 2.8%
- activity at 10 µM (168 GPCRs [6]; PROKR2, Antagonist mode, 10 uM): 6.8%
- activity at 1 µM (168 GPCRs [6]; PROKR2, Antagonist, 1 uM): 2%
- activity at 1 µM (168 GPCRs [7]; 1 uM): -1.1%
- activity at 10 µM (168 GPCRs [7]; 10 uM): -2.4%
- activity at 10 µM (168 GPCRs [8]; Antagonist mode, 10 uM): 9.1%
- activity at 1 µM (168 GPCRs [8]; Antagonist, 1 uM): 25.8%
- activity at 1 µM (168 GPCRs [9]; 1 uM): 15.8%
- activity at 10 µM (168 GPCRs [9]; 10 uM): 2%
- activity at 10 µM (168 GPCRs [10]; HRH3, Antagonist mode, 10 uM): 5.8%
- activity at 1 µM (168 GPCRs [10]; HRH3, Antagonist, 1 uM): 9.5%
- activity at 10 µM (168 GPCRs [11]; Antagonist mode, 10 uM): 2.5%
- activity at 1 µM (168 GPCRs [11]; Antagonist, 1 uM): 5.3%
- activity at 10 µM (168 GPCRs [12]; PTHR1, Antagonist mode, 10 uM): -8.3%
- activity at 1 µM (168 GPCRs [12]; PTHR1, Antagonist, 1 uM): 2.2%
- activity at 10 µM (168 GPCRs [13]; Antagonist mode, 10 uM): 10.9%
- activity at 1 µM (168 GPCRs [13]; Antagonist, 1 uM): 17.5%
- activity at 10 µM (168 GPCRs [14]; Antagonist mode, 10 uM): -21.5%
- activity at 1 µM (168 GPCRs [14]; Antagonist, 1 uM): 12.4%
- activity at 10 µM (168 GPCRs [15]; EBI2, Antagonist mode, 10 uM): 2.6%
- activity at 1 µM (168 GPCRs [15]; EBI2, Antagonist, 1 uM): 0.6%
- activity at 10 µM (168 GPCRs [16]; Antagonist mode, 10 uM): 5.4%
- activity at 1 µM (168 GPCRs [16]; Antagonist, 1 uM): 0.2%
- activity at 10 µM (168 GPCRs [17]; TACR3, Antagonist mode, 10 uM): -14.3%
- activity at 1 µM (168 GPCRs [17]; TACR3, Antagonist, 1 uM): -3.9%
- activity at 10 µM (168 GPCRs [18]; CXCR7, Antagonist mode, 10 uM): 7.3%
- activity at 1 µM (168 GPCRs [18]; CXCR7, Antagonist, 1 uM): 14.1%
